Laboratory results taken from article PMC10541198, “Specific quinone reductase 2 inhibitors reduce metabolic burden and reverse Alzheimer’s disease phenotype in mice” (The Journal of Clinical Investigation, 2023).
Several values for one entry are separate records, joined by “and”; a condition that tells them apart may be missing. Equal values may be shown once.

System: C57BL/6 mice
Assay: Delay fear conditioning, microinjection to hippocampal CA1
Assay type: in vivo, mouse
Experimental: In order to evaluate the efficacy of some of the leading QR2is in vivo, we carried out double-blind experiments using 2 different modalities (Supplemental Methods), measuring memory that is dependent on different brain areas. First, cortical memory was tested using incidental novel taste learning (see Methods), in which an unfamiliar, but palatable and safe, taste is given for the first time, and the memory for this newly learned taste is then assessed 2 days later. This is done by measuring the volume of the taste consumed upon subsequent exposure to it ([32]) (Figure 4A). […] Next, hippocampal-dependent learning was evaluated using delay fear conditioning (DFC; see Methods) ([33]). Mice were cannulated to the CA1 region of the hippocampus and were microinjected with YB-537 (1 μL of 5 μM, Figure 4, D and H) or vehicle. […] In order to evaluate any possible effect of acute QR2i microinjection on metabolic stress in the mouse brain, ISR activation was measured by quantifying total and phosphorylated eukaryotic initiation factor 2 α (eIF2α) levels (Supplemental Figure 3A) and lipid peroxidation product, 4-hydroxynonenal (4-HNE; Supplemental Figure 3B), by immunoblot 3 hours after the injection.
DFC was done as previously described ([7]). Briefly, mice were given 2 minutes to explore the conditioning chambers, during which baseline freezing was measured. Then, a 20 second, 4 kHz, 80 dB tone was given, coterminating with the start of a 2 second, 0.5 mA foot-shock. This was repeated twice more in 1 minute intervals. Following the third and last bout, 1 minute was given before the animals were removed from the chambers. The next day, the animals were returned to the room under the same conditions and were placed back into the chambers, and freezing to the context was measured over the course of 5 minutes. The next day, the mice were brought to unfamiliar conditioning rooms and chambers. In this unfamiliar context, the protocol from the first day was repeated, except without the foot shocks. Freezing for the cue was recorded, starting from the sounding of the first tone. All measurements were taken with a Sentec stc-tb33usb-at camera, and analysis was done with Freeze Frame software (Actimetrics). […]
Mice were anesthetized under 2% isoflurane, using an induction box (HME109, Highland Medical Equipment). They were placed in a stereotaxic device (Kopf Stereotaxic Alignment System, model 1900) under continuous 1% isoflurane anesthesia. Guide cannulas were implanted bilaterally to CA1 (from bregma: −1.9 mm AP, ±1.4 mm, −1.6 mm DV), cemented to the skull and fitted with 28- gauge dummy cannulas e xt e ndi ng 0.2 mm beyond the tip of the 1.2 mm guide cannulas. The mice were allowed at least 7 days of r ecover y before e xpe r im e nt at ion. The QR2 inhibitor YB-537 was dissolved in saline (0.9%). A total of 1μL of 5μM of YB-537 or vehicle was infused bilaterally to CA1, via a 28- gauge infusion cannula projecting 0.4 mm (drug delivery depth bregma: […]) beyond the guide cannula, connected by polyethylene tubing to a 10μL s yr i nge (Hamilton) ove r the course of 1m i n. The injection cannula was […]
kept for 60s inside the guide cannula in order prevent osmotic seepage of the doses upward through the cannula tract. Twenty minutes following the injection, animals underwent delay fear conditioning.
Following experimentation, animals were killed, brains were sliced in coronal sections, and cannula implantation was validated by imaging.
Incidental Tast e Learning […]
neophobia is highly conserved across species, as it is the fi rst line of defense against potentially poisonous, newly discovered foodstuffs.
However, once a memory for the taste is formed and no associated ill effect is learned, the taste becomes familiar and the animal consumes it more freely, especially if it is a pleasant, palatable taste. Thus, the stronger the memory for the safe, palatable taste, the more likely the animal will consume it(32, 56). […]

[1] = 5 μM to CA1, in % (unit assumed)

Cc1ccc(-c2cn3cccc(C)c3n2)cc1S(=O)(=O)N1CCNCC1 [YB-537]
inter-trial learning during conditioning (5 μM to CA1, n=6): normal inter-trial learning | freezing during conditioning (individual mice) (5 μM to CA1, Baseline, in % (unit assumed)): 2.45 and 0.22 and 3.23 and 4.78 and 9.01 and 1.89 | freezing during conditioning (individual mice) (5 μM to CA1, CS/US 1, in % (unit assumed)): 13.08 and 8.81 and 18.16 and 10.01 and 26.70 and 2.54 | freezing during conditioning (individual mice) (5 μM to CA1, CS/US 2, in % (unit assumed)): 20.03 and 15.78 and 28.12 and 17.97 and 27.02 and 2.19 | freezing during conditioning (individual mice) (5 μM to CA1, CS/US 3, in % (unit assumed)): 24.88 and 20.00 and 35.58 and 21.40 and 33.02 and 2.33 | freezing in response to the context (individual mice) [1]: 59.92 and 49.69 and 57.37 and 25.70 and 41.84 and 33.92 | freezing in response to the cue (individual mice) [1]: 51.89 and 48.39 and 35.02 and 23.60 and 5.68 and 24.28
